Data on 22 compounds can be found in ChEMBL document CHEMBL4270639, “Design of PPAR-γ agonist based on algal metabolites and the endogenous ligand 15-deoxy-Δ12, 14-prostaglandin J2” (Eur J Med Chem, 2018).

Molecules are shown by their SMILES. Activity calls are given as the source filed them. No cut-off for these calls is given here.

For data set [1], the target named is T1, Peroxisome proliferator-activated receptor gamma (Homo sapiens) (UniProt P37231).
T1 sequence (whole entry): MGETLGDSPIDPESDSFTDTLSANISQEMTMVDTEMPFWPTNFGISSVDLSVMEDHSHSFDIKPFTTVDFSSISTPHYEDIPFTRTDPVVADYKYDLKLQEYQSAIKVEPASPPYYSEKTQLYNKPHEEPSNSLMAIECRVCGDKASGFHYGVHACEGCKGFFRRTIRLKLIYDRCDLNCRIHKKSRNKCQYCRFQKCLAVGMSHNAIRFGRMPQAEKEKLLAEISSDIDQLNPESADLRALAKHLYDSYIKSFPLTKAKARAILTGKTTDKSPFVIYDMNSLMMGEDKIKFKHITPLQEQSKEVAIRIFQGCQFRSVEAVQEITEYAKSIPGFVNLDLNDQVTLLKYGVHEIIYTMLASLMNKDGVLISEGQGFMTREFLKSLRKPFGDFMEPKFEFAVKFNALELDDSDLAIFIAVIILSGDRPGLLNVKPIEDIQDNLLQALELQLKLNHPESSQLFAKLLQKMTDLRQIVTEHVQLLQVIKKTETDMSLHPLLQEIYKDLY
The experiment in a line: Transactivation of full length human FLAG-tagged PPARgamma1 LBD expressed in rat Ac2F cells at 5 to 10 uM after 6 hrs by luciferase reporter gene assay. It is filed as cell-based.

The nature of data set [2]: Cytotoxicity against rat Ac2F cells assessed as decrease in cell viability after 24 hrs by WST assay. It is filed as cell-based.

As for `CCCCCCCC=C1C(=O)CCC1CC(=O)OC` (stereo not drawn), in data set [1], the outcome was inactive.

`COC(=O)CC1CCC(=O)/C1=C/C1CCCCC1` (stereo not drawn): the outcome in data set [1] was Active.

With `CCCC=C1C(=O)CCC1CC(=O)OC` (stereo not drawn), the outcome in data set [1] was inactive.

Consider `CCCCC=C1C(=O)CCC1CC(=O)OC` (stereo not drawn), for which, in data set [1], the outcome was inactive.

With `CCC=C1C(=O)CCC1CC(=O)OC` (stereo not drawn), in data set [1], the result was inactive.

For `CCCCC(C=C1C(=O)CCC1CC(=O)OC)CC` (stereo not drawn), in data set [1], the result was Active.

Regarding `COC(=O)CC1CCC(=O)C1CC1CCCCC1` (stereo not drawn), the result in data set [1] was inactive.

In the case of `COC(=O)CC1CCC(=O)/C1=C\CCc1ccccc1` (stereo not drawn), in data set [1], the result was inactive.

Regarding `CCCCCCCCC=C1C(=O)CCC1CC(=O)OC` (stereo not drawn), in data set [1], the outcome was inactive.

For `COC(=O)CC1CCC(=O)C1=CC(C)c1ccccc1` (stereo not drawn), the outcome in data set [1] was inactive.

Consider `CCOC(=O)CC1CCC(=O)/C1=C/C1CCCCC1` (stereo not drawn), for which the outcome in data set [1] was Active.

For the compound `COC(=O)CC1CCC(=O)C1=CC(c1ccccc1)c1ccccc1` (stereo not drawn), in data set [1], the result was inactive.

Consider `O=C(O)CC1CCC(=O)/C1=C/C1CCCCC1` (stereo not drawn), for which, in data set [1], the result was Active.

`COC(=O)CC1CCC(=O)C1=CC(OC)OC` (stereo not drawn): in data set [1], the outcome was Active.

Take `CCOC(=O)C[C@@H]1CCC(=O)/C1=C/C1CCCCC1`: the result in data set [1] was Active.

Consider `CCOC(=O)C[C@H]1CCC(=O)/C1=C/C1CCCCC1`, for which, in data set [1], the outcome was Active.

With `COC(=O)CC1CCC(=O)C1=CC1CCCC1` (stereo not drawn), in data set [1], the outcome was Active.

On to `COC(=O)CC1CCC(=O)/C1=C/CCc1ccccc1` (stereo not drawn), for which the outcome in data set [1] was inactive.

As to `COC(=O)CC1CCC(=O)C1=CCC(C)C` (stereo not drawn), the outcome in data set [1] was Active.

Regarding `COC(=O)CC1CCC(=O)C1=CC1CCCCC1` (stereo not drawn), in data set [1], the result was Active. Also, the Activity result in data set [2] is reported as “Non-Toxic”.

With `CCCCCCC=C1C(=O)CCC1CC(=O)OC` (stereo not drawn), in data set [1], the result was inactive.

For the compound `COC(=O)CC1CCC(=O)C1=CCc1ccccc1` (stereo not drawn), the result in data set [1] was Active.
